This passage reports IC50 and AC50 results from patent US20250154169A1, “COMPOUNDS AND METHODS FOR MODULATING SPLICING” (REMIX THERAPEUTICS INC., priority 2021, published 2025).

Structures are written as SMILES. Like-named read-outs stand apart in the source and are kept apart here.

Test [1] deals with HTT mRNA. Briefly: Splicing RT-qPCR assay, HTT canonical (CJ) and alternative (AJ) junction mRNA. It is filed as cell-based, human. The settings on record: Homo sapiens, A673 or K562 cells, 24 hours compound treatment; for IC50: 24 h, read-out: HTT CJ (IC50, decrease in canonical junction mRNA); for AC50: read-out: HTT AJ (AC50, increase in alternative junction mRNA). Here is the method: (§1) Compounds described herein were used to modulate RNA transcript abundance in cells. The expression of a target mRNA was measured by detecting the formation of an exon-exon junction in the canonical transcript (CJ). A compound mediated exon-inclusion event was detected by observing an increase in formation of a new junction with an alternative exon (AJ). Real-time qPCR assays were used to detect these splicing switches and interrogate the potency of various compounds towards different target genes. A high-throughput real time quantitative PCR (RT-qPCR) assay was developed to measure these two isoforms of the mRNA (CJ and AJ) for exemplary genes, such as HTT, SMN2, and MYB, together with a control housekeeping gene, GAPDH or GUSB or PPIA, used for normalization. Briefly, the A673 or K562 cell line was treated with various compounds described herein (e.g., compounds of Formula (I)). After treatment, the levels of the HTT, MYB, or SMN2 mRNA targets were determined from each sample of cell lysate by cDNA synthesis followed by qPCR.
(§2) • Cells-to-CT 1-step kit: ThermoFisher A25602, Cells-to-CT lysis reagent: ThermoFisher 4391851C, TaqMan™ Fast Virus 1-Step Master Mix: ThermoFisher 4444436 • GAPDH: VIC-PL, ThermoFisher 4326317E (Assay: Hs99999905_m1)—used for K562/suspension cell lines • GUSB: VIC-PL, ThermoFisher 4326320E (Assay: Hs99999908_m1)—used for K562/suspension cell lines • PPIA: VIC-PL, ThermoFisher 4326316E (Assay: Hs99999904_m1)—used for A673/adherent cell lines
(§3) The A673 cell line was cultured in DMEM with 10% FBS. Cells were diluted with full growth media and plated in a 96-well plate (15,000 cells in 100 ul media per well). The plate was incubated at 37° C. with 5% CO2 for 24 hours to allow cells to adhere. An 11-point 3-fold serial dilution of the compounds was made in DMSO then diluted in media in an intermediate plate. Compounds were transferred from the intermediate plate to the cell plate with the top dose at a final concentration of 10 uM in the well. Final DMSO concentration was kept at or below 0.25%. The cell plate was returned to the incubator at 37° C. with 5% CO2 for an additional 24 hours.
(§4) The K562 cell line was cultured in IMDM with 10% FBS. For K562, cells were diluted with full growth media and plated in either a 96-well plate (50,000 cells in 50 uL media per well) or a 384-well plate (8,000-40,000 cells in 45 uL media per well). An 11-point 3-fold serial dilution of the compounds were made in DMSO then diluted in media in an intermediate plate. Compound was transferred from the intermediate plate to the cell plate with the top dose at a final concentration of 10 uM in the well. Final DMSO concentration was kept at or below 0.25%. Final volume was 100 uL for 96-well plate and 50 uL for 384-well plate. The cell plate was then placed in an incubator at 37° C. with 5% CO2 for 24 hours.
(§5) The cells were then gently washed with 50 uL-100 uL cold PBS before proceeding to addition of lysis buffer. 30 uL-50 uL of room temperature lysis buffer with DNAse I (and optionally RNAsin) was added to each well. Cells were shaken/mixed thoroughly at room temperature for 5-10 minutes for lysis to take place and then 3 uL-5 uL of room temperature stop solution was added and wells were shaken/mixed again. After 2-5 minutes, the cell lysate plate was transferred to ice for RT-qPCR reaction setup. The lysates could also be frozen at −80° C. for later use.
(§6) In some cases, a direct lysis buffer was used. An appropriate volume of 3× lysis buffer (10 mM Tris, 150 mM NaCl, 1.5%-2.5% Igepal and 0.1-1 U/uL RNAsin, pH 7.4) was directly added to either K562 or A673 cells in media and mixed by pipetting 3 times. The plates were then incubated at room temperature with shaking/rocking for 20-50 minutes to allow for lysis to take place. After this time, the cell lysate plate was transferred to ice to set up for the RT-qPCR reactions. The lysates could also be frozen at −80° C. for later use. […]

Test [2] concerns MYB mRNA. Nature of the test: Splicing RT-qPCR assay, MYB canonical (CJ) and alternative (AJ) junction mRNA. The test is classed as cell-based, human. The settings on record: A673 or K562 cells, 24 hours compound treatment, RT-qPCR; for AC50: read-out: MYB AJ (AC50, increase in alternative junction mRNA); for IC50: read-out: MYB CJ (IC50, decrease in canonical junction mRNA). Here is the method: as §1, §2, §3, §4, §5, §6

Turning to `CCNC1CCN(c2ccc(C(=O)Nc3cc(F)c4nc(C)cn4c3)c3nn(CC)cc23)C1` (stereo in doubt) [Compound 399, (S)-2-ethyl-4-(3-(ethylamino)pyrrolidin-1-yl)-N-(8-fluoro-2-methylimidazo[1,2-a]pyridin-6-yl)-2H-indazole-7-carboxamide], the IC50 in test [1] was greater than 10000 nM; in test [2] (Homo sapiens, 24 h), 100 to 1000 nM. Moreover, the concentration at half-maximal activity (AC50) was greater than 10000 nM in test [1] and 100 to 1000 nM in test [2] (Homo sapiens, 24 h).
In the case of `CCNC1CCN(c2ccc(C(=O)Nc3cc(F)c4nc(C)cn4c3)c3nn(CC)cc23)C1` (stereo in doubt) [Compound 400, (R)-2-ethyl-4-(3-(ethylamino)pyrrolidin-1-yl)-N-(8-fluoro-2-methylimidazo[1,2-a]pyridin-6-yl)-2H-indazole-7-carboxamide], in test [1], the half-inhibitory concentration (IC50) was greater than 10000 nM and the concentration at half-maximal activity (AC50) is greater than 10000 nM. For the same molecule, in test [2] (Homo sapiens, 24 h), the AC50 is less than 100 nM and the IC50 is less than 100 nM.
As for `Cc1cn2cc(NC(=O)c3ccc(N4CCc5[nH]ccc5C4)c4cn(C)nc34)cc(F)c2n1` [Compound 390, N-{8-fluoro-2-methylimidazo[1,2-a]pyridin-6-yl}-2-methyl-4-{1H,4H,6H,7H-pyrrolo[3,2-c]pyridin-5-yl}indazole-7-carboxamide], in test [1], the IC50 is greater than 10000 nM and the half-maximal activity concentration (AC50) was greater than 10000 nM. Also, in test [2] (Homo sapiens, 24 h), the AC50 is greater than 10000 nM and the IC50 is greater than 10000 nM.
Consider `Cc1cn2cc(NC(=O)c3ccc(N4CCNCC4)c4cn(C5CCC5)nc34)cc(F)c2n1` [Compound 391, 2-cyclobutyl-N-{8-fluoro-2-methylimidazo[1,2-a]pyridin-6-yl}-4-(piperazin-1-yl) indazole-7-carboxamide], for which, in test [1], the half-maximal inhibitory concentration (IC50) was greater than 10000 nM and the AC50 lay within 1000 to 10000 nM. Besides, in test [2] (Homo sapiens, 24 h), the half-maximal activity concentration (AC50) lay within 100 to 1000 nM and the IC50 is less than 100 nM.
For `C=CCn1cc2c(N3CCNCC3)ccc(C(=O)Nc3cc(F)c4nc(C)cn4c3)c2n1` [Compound 392, N-{8-fluoro-2-methylimidazo[1,2-a]pyridin-6-yl}-4-(piperazin-1-yl)-2-(prop-2-en-1-yl) indazole-7-carboxamide], in test [1], the IC50 is 1000 to 10000 nM and the AC50 fell in the range of 1000 to 10000 nM. Moreover, in test [2] (Homo sapiens, 24 h), the half-maximal activity concentration (AC50) was less than 100 nM and the IC50 is less than 100 nM.
On to `CCn1cc2c(N3CC[C@@H](NC)C3)ccc(C(=O)Nc3cc(F)c4nc(C)cn4c3)c2n1` [Compound 393, (R)-2-ethyl-N-(8-fluoro-2-methylimidazo[1,2-a]pyridin-6-yl)-4-(3-(methylamino)pyrrolidin-1-yl)-2H-indazole-7-carboxamide], for which, in test [1], the IC50 was greater than 10000 nM and the concentration at half-maximal activity (AC50) was greater than 10000 nM. For the same molecule, in test [2], the AC50 was in the range of 100 to 1000 nM and the IC50 is 100 to 1000 nM.
With `CCn1cc2c(N3CCC4(CCN4)CC3)ccc(C(=O)Nc3cc(F)c4nc(C)cn4c3)c2n1` [Compound 394, 4-{1,7-diazaspiro[3.5]nonan-7-yl}-2-ethyl-N-{8-fluoro-2-methylimidazo[1,2-a]pyridin-6-yl}indazole-7-carboxamide], in test [1], the concentration for half-maximal inhibition (IC50) lay within 1000 to 10000 nM and the concentration at half-maximal activity (AC50) lay in the range of 1000 to 10000 nM. In test [2] (Homo sapiens, 24 h), the concentration at half-maximal activity (AC50) fell in the range of 100 to 1000 nM and the half-inhibitory concentration (IC50) is 100 to 1000 nM.
As to `CCn1cc2c(N3CCC(N(C)C)CC3)ccc(C(=O)Nc3cc(F)c4nc(C)cn4c3)c2n1` [Compound 395, 4-[4-(dimethylamino)piperidin-1-yl]-2-ethyl-N-{8-fluoro-2-methylimidazo[1,2-a]pyridin-6-yl}indazole-7-carboxamide], the IC50 in test [1] is 1000 to 10000 nM; in test [2] (Homo sapiens, 24 h), less than 100 nM. The AC50 in test [1] is 1000 to 10000 nM; in test [2] (Homo sapiens, 24 h), less than 100 nM.
On to `CCNC1CCN(c2ccc(C(=O)Nc3cc(F)c4nc(C)cn4c3)c3nn(CC)cc23)C1` (stereo not shown) [Compound 396, 2-ethyl-4-[3-(ethylamino)pyrrolidin-1-yl]-N-{8-fluoro-2-methylimidazo[1,2-a]pyridin-6-yl}indazole-7-carboxamide], for which, in test [1], the IC50 is greater than 10000 nM and the half-maximal activity concentration (AC50) is greater than 10000 nM. Besides, in test [2] (Homo sapiens, 24 h), the AC50 is less than 100 nM and the IC50 is 100 to 1000 nM.
Regarding `Cc1cn2cc(NC(=O)c3ccc(N4CCC(N)(CF)CC4)c4cn(C)nc34)cc(F)c2n1` [Compound 397], the IC50 in test [1] lay in the range of 1000 to 10000 nM; in test [2] (Homo sapiens, 24 h), 100 to 1000 nM. In addition, the AC50 in test [1] lay within 1000 to 10000 nM; in test [2] (Homo sapiens, 24 h), 100 to 1000 nM.
Consider `CCn1cc2c(N3CCC(NC4CC4)C3)ccc(C(=O)Nc3cc(F)c4nc(C)cn4c3)c2n1` (stereo not shown) [Compound 398, 4-[3-(cyclopropylamino)pyrrolidin-1-yl]-2-ethyl-N-{8-fluoro-2-methylimidazo[1,2-a]pyridin-6-yl}indazole-7-carboxamide], for which, in test [1], the half-inhibitory concentration (IC50) is greater than 10000 nM and the AC50 is greater than 10000 nM. Further, in test [2] (Homo sapiens, 24 h), the concentration at half-maximal activity (AC50) was in the range of 100 to 1000 nM and the concentration for half-maximal inhibition (IC50) was 100 to 1000 nM.
Take `CCn1cc2c(N3CCC4(CC3)CCN4C)ccc(C(=O)Nc3cc(F)c4nc(C)cn4c3)c2n1` [Compound 401, 2-ethyl-N-(8-fluoro-2-methylimidazo[1,2-a]pyridin-6-yl)-4-(1-methyl-1,7-diazaspiro[3.5]nonan-7-yl)-2H-indazole-7-carboxamide 2,2,2-trifluoroacetate]: in test [1], the IC50 lay in the range of 100 to 1000 nM and the AC50 was 100 to 1000 nM. For the same molecule, in test [2] (Homo sapiens, 24 h), the concentration at half-maximal activity (AC50) is less than 100 nM and the half-inhibitory concentration (IC50) is less than 100 nM.
With `Cc1cn2cc(NC(=O)c3ccc(N4CCC(N)CC4)c4cn(C)nc34)cc(F)c2n1` [Compound 402, 4-(4-aminopiperidin-1-yl)-N-{8-fluoro-2-methylimidazo[1,2-a]pyridin-6-yl}-2-methylindazole-7-carboxamide], in test [1], the concentration for half-maximal inhibition (IC50) was in the range of 100 to 1000 nM and the AC50 lay in the range of 100 to 1000 nM. Besides, in test [2] (Homo sapiens, 24 h), the concentration at half-maximal activity (AC50) was less than 100 nM and the concentration for half-maximal inhibition (IC50) was less than 100 nM.
`CCn1cc2c(N3CCNC(CO)C3)ccc(C(=O)Nc3cc(F)c4nc(C)cn4c3)c2n1` (stereo not shown) [Compound 403, 2-ethyl-N-{8-fluoro-2-methylimidazo[1,2-a]pyridin-6-yl}-4-[3-(hydroxymethyl)piperazin-1-yl]indazole-7-carboxamide]: in test [1], the IC50 lay in the range of 1000 to 10000 nM and the AC50 fell in the range of 1000 to 10000 nM. Moreover, in test [2] (Homo sapiens, 24 h), the half-maximal activity concentration (AC50) is 100 to 1000 nM and the half-maximal inhibitory concentration (IC50) was in the range of 100 to 1000 nM.
Take `Cc1nc2c(C)nc(NC(=O)c3ccc(N4CCNCC4)c4cn(C)nc34)cc2o1` [Compound 405, N-{2,4-dimethyl-[1,3]oxazolo[4,5-c]pyridin-6-yl}-2-methyl-4-(piperazin-1-yl) indazole-7-carboxamide]: in test [1], the half-maximal inhibitory concentration (IC50) lay in the range of 1000 to 10000 nM and the half-maximal activity concentration (AC50) was 1000 to 10000 nM. For the same molecule, in test [2] (Homo sapiens, 24 h), the AC50 was 100 to 1000 nM and the half-inhibitory concentration (IC50) was less than 100 nM.
Take `Cn1cc2c(N3CCNCC3)ccc(C(=O)Nc3cc(F)c4nc(CO)oc4c3)c2n1` [Compound 406, N-[4-fluoro-2-(hydroxymethyl)-1,3-benzoxazol-6-yl]-2-methyl-4-(piperazin-1-yl) indazole-7-carboxamide]: the IC50 in test [1] is 100 to 1000 nM; in test [2] (Homo sapiens, 24 h), less than 100 nM. The half-maximal activity concentration (AC50) in test [1] is 100 to 1000 nM; in test [2] (Homo sapiens, 24 h), less than 100 nM.
